The source made the active and inactive calls. The calls are words filed in the database; no cut-off is given here.
Test system: SH-SY5Y
Test: Neuroprotective activity against H2O2-induced cytotoxicity in human SH-SY5Y cells assessed as cell viability at 10 uM pretreated for 2 hrs followed by H2O2 challenge and measured after 24 hrs by MTT assay relative to control
Assay type: functional
Details: for viability at 10 µM: read-out: Activity

For `C[C@@H]1CC[C@@]2(OC1)O[C@H]1C[C@H]3[C@@H]4CC=C5C[C@@H](OC(=O)N6CCN(C)CC6)CC[C@]5(C)[C@H]4CC[C@]3(C)[C@H]1[C@@H]2C`, the viability at 10 µM was 3.6%.
In the case of `C[C@@H]1CC[C@@]2(OC1)O[C@H]1C[C@H]3[C@@H]4CC=C5C[C@@H](OC(=O)N6CCN(Cc7ccc(F)cc7)CC6)CC[C@]5(C)[C@H]4CC[C@]3(C)[C@H]1[C@@H]2C`, the viability at 10 µM is reported as 5.4%.
Work on `COc1ccccc1CNC(=O)O[C@H]1CC[C@@]2(C)C(=CC[C@H]3[C@@H]4C[C@@H]5O[C@]6(CC[C@@H](C)CO6)[C@@H](C)[C@@H]5[C@@]4(C)CC[C@@H]32)C1` yielded a viability at 10 µM of 11.3%.
`C[C@@H]1CC[C@@]2(OC1)O[C@H]1C[C@H]3[C@@H]4CC=C5C[C@@H](OC(=O)NCc6cnccn6)CC[C@]5(C)[C@H]4CC[C@]3(C)[C@H]1[C@@H]2C` showed a viability at 10 µM of 22.3%.
`C[C@@H]1CC[C@@]2(OC1)O[C@H]1C[C@H]3[C@@H]4CC=C5C[C@@H](OC(=O)NC(C)(C)C)CC[C@]5(C)[C@H]4CC[C@]3(C)[C@H]1[C@@H]2C` was tested, and the viability at 10 µM was 7.7%.
With `C[C@@H]1CC[C@@]2(OC1)O[C@H]1C[C@H]3[C@@H]4CC=C5C[C@@H](OC(=O)NCc6ccc(C(F)(F)F)cc6)CC[C@]5(C)[C@H]4CC[C@]3(C)[C@H]1[C@@H]2C` the Activity was “inactive”.
With `C[C@@H]1CC[C@@]2(OC1)O[C@H]1C[C@H]3[C@@H]4CC=C5C[C@@H](OC(=O)N(C)Cc6ccc(F)cc6)CC[C@]5(C)[C@H]4CC[C@]3(C)[C@H]1[C@@H]2C` the viability at 10 µM was 10.7%.
Work on `Cc1ccc(CNC(=O)O[C@H]2CC[C@@]3(C)C(=CC[C@H]4[C@@H]5C[C@@H]6O[C@]7(CC[C@@H](C)CO7)[C@@H](C)[C@@H]6[C@@]5(C)CC[C@@H]43)C2)cc1` yielded a viability at 10 µM of 26.3%.
`CC(C)CNC(=O)O[C@H]1CC[C@@]2(C)C(=CC[C@H]3[C@@H]4C[C@@H]5O[C@]6(CC[C@@H](C)CO6)[C@@H](C)[C@@H]5[C@@]4(C)CC[C@@H]32)C1` gave a viability at 10 µM of 25.3%.
With `C[C@@H]1CC[C@@]2(OC1)O[C@H]1C[C@H]3[C@@H]4CC=C5C[C@@H](OC(=O)NCc6cccc(F)c6)CC[C@]5(C)[C@H]4CC[C@]3(C)[C@H]1[C@@H]2C` the viability at 10 µM was 27.4%.
In the case of `C[C@@H]1CC[C@@]2(OC1)O[C@H]1C[C@H]3[C@@H]4CC=C5C[C@@H](OC(=O)NC6CC6)CC[C@]5(C)[C@H]4CC[C@]3(C)[C@H]1[C@@H]2C`, the Activity is reported as “inactive”.
Work on `C[C@@H]1CC[C@@]2(OC1)O[C@H]1C[C@H]3[C@@H]4CC=C5C[C@@H](O)CC[C@]5(C)[C@H]4CC[C@]3(C)[C@H]1[C@@H]2C` [DISOGENIN] yielded a viability at 10 µM of 6.7%.
Work on `C[C@@H]1CC[C@@]2(OC1)O[C@H]1C[C@H]3[C@@H]4CC=C5C[C@@H](OC(=O)N6CCN(Cc7ccc(O)cc7)CC6)CC[C@]5(C)[C@H]4CC[C@]3(C)[C@H]1[C@@H]2C` yielded a viability at 10 µM of 9.7%.
For `C[C@@H]1CC[C@@]2(OC1)O[C@H]1C[C@H]3[C@@H]4CC=C5C[C@@H](OC(=O)N6CCN(Cc7ccc(Cl)cc7)CC6)CC[C@]5(C)[C@H]4CC[C@]3(C)[C@H]1[C@@H]2C`, the viability at 10 µM was 4.5%.
Work on `C[C@@H]1CC[C@@]2(OC1)O[C@H]1C[C@H]3[C@@H]4CC=C5C[C@@H](OC(=O)NCc6ccccc6F)CC[C@]5(C)[C@H]4CC[C@]3(C)[C@H]1[C@@H]2C` yielded a viability at 10 µM of 21%.
Compound `C[C@@H]1CC[C@@]2(OC1)O[C@H]1C[C@H]3[C@@H]4CC=C5C[C@@H](OC(=O)NCc6cccnc6)CC[C@]5(C)[C@H]4CC[C@]3(C)[C@H]1[C@@H]2C` has a viability at 10 µM of 3.5%.
Work on `C[C@@H]1CC[C@@]2(OC1)O[C@H]1C[C@H]3[C@@H]4CC=C5C[C@@H](OC(=O)NCc6ccccc6Cl)CC[C@]5(C)[C@H]4CC[C@]3(C)[C@H]1[C@@H]2C` yielded a viability at 10 µM of 8.9%.

Source: ChEMBL document CHEMBL4602645, “Design, synthesis and evaluation of diosgenin carbamate derivatives as multitarget anti-Alzheimer's disease agents” (2020)
